Experimental findings from US20160016929A1, “PRO-DRUG COMPOUNDS” (PROXIMAGEN LIMITED, priority 2013, published 2016) are described below.

Series [1] is described as follows: Solubility in aqueous solutions (Table 3). It counts as physicochemical. The conditions noted are these: aqueous solution. As for the experimental part: The skilled person understands that the pH of the gastrointestinal tract changes along its length. […] For more detail see, for example, Measurement of gastrointestinal pH profiles in normal ambulant human subjects, Gut. […] Improved solubility is expected to result in improved absorption, and therefore improved oral bioavailability.
In an embodiment prodrugs of the invention are administered intravenously. High prodrug solubility is advantageous in order to reduce the volume of solution administered to the patient, and to reduce the risk of damage to the circulatory system. Solubility of >10 mg/mL is preferred.

The next series has as its target T1, hERG K+ channel (Homo sapiens, UniProt Q12809).
T1 construct: a Chinese Hamster Lung cell line stably expressing the full length hERG channel; expressed in transfected cells; host or cells: Chinese Hamster Lung cell line
Description: hERG assay, IonWorks patch clamp electrophysiology. It counts as cell-based. The conditions noted are these: human, pH 7.3; 11 uM; Chinese Hamster Lung cell line stably expressing hERG. As for the experimental part: Compounds of the invention were tested for inhibition of the human ether a go-go related gene (hERG) K^+ channel using IonWorks patch clamp electrophysiology. 8 Point concentration-response curves were generated on two occasions using 3-fold serial dilutions from the maximum assay concentration (33 uM). Electrophysiological recordings were made from a Chinese Hamster Lung cell line stably expressing the full length hERG channel. Single cell ion currents were measured in the perforated patch clamp configuration (100 ug/mL amphoterocin) at room temperature using an IonWorks Quattro instrument. The internal solution contained 140 mM KCl, 1 mM MgCl2, 1 mM EGTA and 20 mM HEPES and was buffered to pH 7.3. The external solution contained 138 mM NaCl, 2.7 mM KCl, 0.9 mM CaCl2, 0.5 mM MgCl2, 8 mM Na2HPO4 and 1.5 mM KH2PO4, and was buffered to pH 7.3. Cells were clamped at a holding potential of […] for 30 s and then stepped to +40 mV for 1 s. This was followed by a hyperpolarising step of 1 s to […] to evoke the hERG tail current. This sequence was repeated 5 times at a frequency of 0.25 Hz. Currents were measured from the tail step at the 5th pulse, and referenced to the holding current. Compounds were incubated for 6-7 min prior to a second measurement of the hERG signal using an identical pulse train. A minimum of 17 cells were required for each pIC50 curve fit. A control compound (quinidine) was used.
For orientation: hERG is a cardiac potassium channel; its block is linked to QT prolongation.

Series [2] is described as follows: Pharmacokinetics: exposure of tonabersat in plasma after oral or intravenous dosing of prodrugs to rats. In kind it is in vivo. The settings on record: fasted male Sprague Dawley rats. As for the experimental part:
Example Prodrugs of the claimed invention were dosed either intravenously or orally to fasted male Sprague Dawley rats. The rats underwent surgery for jugular vein cannulation 48 h prior to dosing. Following dosing, 0.25 mL blood samples were taken via the cannulae at 0, 5, 10, 20, 30, 45, 60, 120, 240 & 360 min in EDTA coated tubes. Tubes were spun at 13,000 rpm for 4 min and 100 ul of supernatant taken immediately and stored at −80° C. prior to analysis. Plasma samples were analysed by LC-MS/MS following extraction by protein precipitation, and levels of parent prodrug and tonabersat were measured by MRM (Multiple Reaction Monitoring) analysis against an extracted calibration curve of plasma samples spiked with the Example prodrug and tonabersat.
The exposure of tonabersat in plasma following dosing of the prodrugs of the invention was compared directly to the exposure observed following dosing of an equimolar amount of tonabersat under analogous assay conditions (5.00 mg/kg oral dosing or 0.78 mg/kg intravenous dosing). In an embodiment prodrugs of the present invention have >10% exposure of tonabersat obtained following either oral or intravenous dosing of the prodrug to a human or animal subject, compared to the exposure obtained from dosing an equimolar amount of tonabersat itself. In an embodiment the exposure of tonabersat following dosing of the prodrugs is >20%, or >30%, or >40%, or >50%, or preferably >70% compared to the exposure obtained from dosing an equimolar amount of tonabersat itself.

≈ marks a conversion by molar mass, not a printed value.

T1 sequence (Q12809 whole entry): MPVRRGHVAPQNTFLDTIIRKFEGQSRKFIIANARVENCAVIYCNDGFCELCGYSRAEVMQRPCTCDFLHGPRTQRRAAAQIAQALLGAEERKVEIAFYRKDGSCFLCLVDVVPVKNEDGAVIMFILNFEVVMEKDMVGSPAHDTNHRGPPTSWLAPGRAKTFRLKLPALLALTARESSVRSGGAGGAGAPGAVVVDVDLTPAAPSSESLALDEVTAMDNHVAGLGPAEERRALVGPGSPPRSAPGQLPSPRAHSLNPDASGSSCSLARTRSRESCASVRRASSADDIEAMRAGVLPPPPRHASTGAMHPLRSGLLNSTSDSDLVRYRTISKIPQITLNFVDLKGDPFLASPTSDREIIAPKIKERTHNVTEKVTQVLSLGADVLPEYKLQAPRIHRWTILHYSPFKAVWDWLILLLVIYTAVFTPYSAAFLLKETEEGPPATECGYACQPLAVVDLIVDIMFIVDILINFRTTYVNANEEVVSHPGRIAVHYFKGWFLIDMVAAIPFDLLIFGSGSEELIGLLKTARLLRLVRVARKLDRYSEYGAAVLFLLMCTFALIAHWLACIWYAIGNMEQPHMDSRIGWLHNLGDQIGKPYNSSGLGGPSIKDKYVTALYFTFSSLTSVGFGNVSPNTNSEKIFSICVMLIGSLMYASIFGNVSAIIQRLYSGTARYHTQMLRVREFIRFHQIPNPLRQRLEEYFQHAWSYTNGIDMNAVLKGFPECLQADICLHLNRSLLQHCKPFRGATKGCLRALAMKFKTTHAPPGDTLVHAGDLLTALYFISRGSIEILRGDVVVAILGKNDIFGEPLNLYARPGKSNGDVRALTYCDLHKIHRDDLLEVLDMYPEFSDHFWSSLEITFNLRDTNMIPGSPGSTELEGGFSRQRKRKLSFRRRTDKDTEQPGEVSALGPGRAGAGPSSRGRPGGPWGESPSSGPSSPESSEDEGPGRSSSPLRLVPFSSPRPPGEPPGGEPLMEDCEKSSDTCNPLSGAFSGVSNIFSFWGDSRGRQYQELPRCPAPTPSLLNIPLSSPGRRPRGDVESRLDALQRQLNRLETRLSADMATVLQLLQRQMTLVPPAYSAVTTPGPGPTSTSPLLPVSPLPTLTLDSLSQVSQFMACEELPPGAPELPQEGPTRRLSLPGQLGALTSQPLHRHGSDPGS

For `CC(=O)c1ccc2c(c1)[C@H](NC(=O)c1ccc(F)c(Cl)c1)[C@H](OC(=O)OCC[N+](C)(C)C)C(C)(C)O2.[I-]` [Example 2, (3S,4S)-6-Acetyl-4-[(3-chloro-4-fluorobenzene)amido]-2,2-dimethyl-3,4-dihydro-2H-1-benzopyran-3-yl 2-(trimethylazaniumyl)ethyl carbonate iodide], the solubility in series [1] (aqueous buffer, pH not given) was less than 1000 µg/mL. In turn, `CCN(CC)CCOC(=O)O[C@H]1[C@@H](NC(=O)c2ccc(F)c(Cl)c2)c2cc(C(C)=O)ccc2OC1(C)C` [Example 3, (3S,4S)-6-Acetyl-4-[(3-chloro-4-fluorobenzene)amido]-2,2-dimethyl-3,4-dihydro-2H-1-benzopyran-3-yl 2-(diethylamino)ethyl carbonate] had a solubility in series [1] (aqueous buffer, pH not given) of less than 1000 µg/mL. In addition, at hERG K+ channel, testing at 11 µM gave an inhibition of 20%. `CC(=O)c1ccc2c(c1)[C@H](NC(=O)c1ccc(F)c(Cl)c1)[C@H](OC(=O)OC[C@H](N)C(=O)O)C(C)(C)O2.Cl` [Example 5, (2S)-3-[({[(3S,4S)-6-Acetyl-4-[(3-chloro-4-fluorobenzene)amido]-2,2-dimethyl-3,4-dihydro-2H-1-benzopyran-3-yl]oxy}carbonyl)oxy]-2-aminopropanoic acid hydrochloride]: the “% exposure of tonabersat after dosing the prodrugs of the invention via: Intravenous dosing (iv)” value in series [2] (compared to equimolar amount of tonabersat (0.78 mg/kg intravenous dosing)) was determined as 37%. Also, the “% exposure of tonabersat after dosing the prodrugs of the invention via: Oral dosing (po)” value in series [2] (compared to equimolar amount of tonabersat (5.00 mg/kg oral dosing)) is given as 39%. In series [1] (pH 8.8, aqueous buffer), `CC(=O)c1ccc2c(c1)[C@H](NC(=O)c1ccc(F)c(Cl)c1)[C@H](OC(=O)NCC(=O)O)C(C)(C)O2` [Example 7, 2-[({[(3S,4S)-6-Acetyl-4-[(3-chloro-4-fluorobenzene)amido]-2,2-dimethyl-3,4-dihydro-2H-1-benzopyran-3-yl]oxy}carbonyl)amino]acetic acid] gave a solubility of less than 1000 µg/mL. As to `CC(=O)c1ccc2c(c1)[C@H](NC(=O)c1ccc(F)c(Cl)c1)[C@H](OC(=O)CNC(=O)[C@@H]1CCCN1)C(C)(C)O2` [Example 10, (3S,4S)-6-Acetyl-4-[(3-chloro-4-fluorobenzene)amido]-2,2-dimethyl-3,4-dihydro-2H-1-benzopyran-3-yl 2-[(2S)-pyrrolidin-2-ylformamido]acetate], the solubility in series [1] (pH 4.2, aqueous buffer) was determined as 500 µg/mL (≈ 916 µM). Besides, on hERG K+ channel, the inhibition at 11 µM was 32%. In turn, `CC(=O)c1ccc2c(c1)[C@H](NC(=O)c1ccc(F)c(Cl)c1)[C@H](OC(=O)CNC(=O)[C@@H](N)CC(C)C)C(C)(C)O2.Cl` [Example 11, (3S,4S)-6-Acetyl-4-[(3-chloro-4-fluorobenzene)amido]-2,2-dimethyl-3,4-dihydro-2H-1-benzopyran-3-yl 2-[(2S)-2-amino-4-methylpentanamido]acetate hydrochloride] registered a solubility in series [1] (aqueous buffer, pH 5.0) greater than 10000 µg/mL. The inhibition at 11 µM at hERG K+ channel worked out at 34%. Compound `CC(=O)c1ccc2c(c1)[C@H](NC(=O)c1ccc(F)c(Cl)c1)[C@H](OC(=O)CNC(=O)CN)C(C)(C)O2.Cl` [Example 12, (3S,4S)-6-Acetyl-4-[(3-chloro-4-fluorobenzene)amido]-2,2-dimethyl-3,4-dihydro-2H-1-benzopyran-3-yl 2-(2-aminoacetamido)acetate hydrochloride] displayed a solubility in series [1] (pH 5.1, aqueous buffer) greater than 10000 µg/mL. Also, the inhibition at 11 µM against hERG K+ channel turned out to be 43%.

In series [1] (aqueous buffer, pH 5.0), `CC[C@H](C)[C@H](N)C(=O)NCC(=O)O[C@H]1[C@@H](NC(=O)c2ccc(F)c(Cl)c2)c2cc(C(C)=O)ccc2OC1(C)C.Cl` [Example 13, (3S,4S)-6-Acetyl-4-[(3-chloro-4-fluorobenzene)amido]-2,2-dimethyl-3,4-dihydro-2H-1-benzopyran-3-yl 2-[(2S,3S)-2-amino-3-methylpentanamido]acetate hydrochloride] came in with a solubility greater than 10000 µg/mL. In addition, the inhibition at 11 µM at hERG K+ channel came to 2%. `CC(=O)c1ccc2c(c1)[C@H](NC(=O)c1ccc(F)c(Cl)c1)[C@H](OC(=O)CNC(=O)[C@@H](N)C(C)C)C(C)(C)O2.Cl` [Example 14, (3S,4S)-6-Acetyl-4-[(3-chloro-4-fluorobenzene)amido]-2,2-dimethyl-3,4-dihydro-2H-1-benzopyran-3-yl 2-[(2S)-2-amino-3-methylbutanamido]acetate hydrochloride]: the solubility in series [1] (pH 5.5, aqueous buffer) was greater than 10000 µg/mL. This compound also came in with an inhibition at 11 µM against hERG K+ channel of 14%.

For the compound `CC(=O)c1ccc2c(c1)[C@H](NC(=O)c1ccc(F)c(Cl)c1)[C@H](OC(=O)[C@@H](NC(=O)[C@@H](N)C(C)C)C(C)C)C(C)(C)O2.Cl` [Example 15, (3S,4S)-6-Acetyl-4-[(3-chloro-4-fluorobenzene)amido]-2,2-dimethyl-3,4-dihydro-2H-1-benzopyran-3-yl (2S)-2-[(2S)-2-amino-3-methylbutanamido]-3-methylbutanoate hydrochloride], the solubility in series [1] (pH 4.5, aqueous buffer) was greater than 10000 µg/mL. Further, the inhibition at 11 µM at hERG K+ channel was 21%. The compound `CC(=O)c1ccc2c(c1)[C@H](NC(=O)c1ccc(F)c(Cl)c1)[C@H](OC(=O)[C@@H](NC(=O)CN)C(C)C)C(C)(C)O2.Cl` [Example 16, (3S,4S)-6-Acetyl-4-[(3-chloro-4-fluorobenzene)amido]-2,2-dimethyl-3,4-dihydro-2H-1-benzopyran-3-yl (2S)-2-(2-aminoacetamido)-3-methylbutanoate hydrochloride] returned a solubility in series [1] (pH 4.4, aqueous buffer) of 1000 µg/mL. In turn, `CC(=O)c1ccc2c(c1)[C@H](NC(=O)c1ccc(F)c(Cl)c1)[C@H](OC(=O)CCCN1CCOCC1)C(C)(C)O2.Cl` [Example 17, (3S,4S)-6-Acetyl-4-[(3-chloro-4-fluorobenzene)amido]-2,2-dimethyl-3,4-dihydro-2H-1-benzopyran-3-yl 4-(morpholin-4-yl)butanoate hydrochloride] had a solubility in series [1] (pH 5.7, aqueous buffer) of 1000 µg/mL. 11 µM produced 27% inhibition against hERG K+ channel. In series [1] (pH 5.6, aqueous buffer), `CC(=O)c1ccc2c(c1)[C@H](NC(=O)c1ccc(F)c(Cl)c1)[C@H](OC(=O)[C@H](C)NC(=O)[C@@H](N)C(C)C)C(C)(C)O2.Cl` [Example 20, (3S,4S)-6-Acetyl-4-[(3-chloro-4-fluorobenzene)amido]-2,2-dimethyl-3,4-dihydro-2H-1-benzopyran-3-yl (2S)-2-[(2S)-2-amino-3-methylbutanamido]propanoate hydrochloride] yielded a solubility greater than 10000 µg/mL. In series [1] (pH 5.2, aqueous buffer), `CC(=O)c1ccc2c(c1)[C@H](NC(=O)c1ccc(F)c(Cl)c1)[C@H](OC(=O)[C@H](C)NC(=O)[C@@H](N)CC(C)C)C(C)(C)O2.Cl` [Example 21, 6-Acetyl-4-[(3-chloro-4-fluorobenzene)amido]-2,2-dimethyl-3,4-dihydro-2H-1-benzopyran-3-yl (2S)-2-[(2S)-2-amino-4-methylpentanamido]propanoate hydrochloride] displayed a solubility greater than 10000 µg/mL. As for `CC(=O)c1ccc2c(c1)[C@H](NC(=O)c1ccc(F)c(Cl)c1)[C@H](OC(=O)[C@H](C)N(C)C(=O)[C@@H](N)C(C)C)C(C)(C)O2.Cl` [Example 29, 6-Acetyl-4-[(3-chloro-4-fluorobenzene)amido]-2,2-dimethyl-3,4-dihydro-2H-1-benzopyran-3-yl (2S)-2-[(2S)-2-amino-N,3-dimethylbutanamido]propanoate hydrochloride], the solubility in series [1] (pH 5.3, aqueous buffer) was greater than 10000 µg/mL.

One may read the solubility as how much of the substance goes into solution per volume. Read a low solubility as a poorly soluble substance. In general, inhibition refers to the percentage by which the read-out fell short of the control. A low value points to a response near the control.
